Measured values published in patent US20100324312A1, “NOVEL METHYLATED CATECHIN AND COMPOSITION CONTAINING THE SAME” (INCORPORATED ADMINSTRATIVE AGENCY NATIONAL AGRICULTURE AND …, priority 2007, published 2010).

Tests used:
[1] = tested on: BMMC (mouse bone marrow-derived mast cells); assay: Histamine release inhibitory activity in mouse mast cells (IgE-sensitized BMMC, DNP-HSA induced degranulation); assay type: cell-based; details: 12.5 and 25 μg/mL test sample, 10 min incubation, DNP-HSA antigen 20 min; histamine in supernatant relative to control (distilled water); FIG. 2; compared with epigallocatechin-3-O-gallate and epigallocatechin-3-O-(3-O-methyl)gallate
Description: FIG. 2 is a graph showing the histamine release inhibitory activity in mouse mast cells. In FIG. 2, numeral 1 denotes 12.5 μg/mL of epigallocatechin-3-O-gallate; numeral 2 denotes 25 μg/mL of epigallocatechin-3-O-gallate; numeral 3 denotes 12.5 μg/mL of epigallocatechin-3-O-(3-O-methyl)gallate: numeral 4 denotes 25 μg/mL of epigallocatechin-3-O-(3-O-methyl)gallate; numeral 5 denotes 12.5 μg/mL of epi(3-O-methyl)gallocatechin-3-O-(3,5-O-dimethyl)gallate; and numeral 6 denotes 25 μg/mL of epi(3-O-methyl)gallocatechin-3-O-(3,5-O-dimethyl)gallate.
The effect of epi(3-O-methyl)gallocatechin-3-O-(3,5-O-dimethyl)gallate was determined based on the histamine release inhibitory activity in mouse mast cells. Epigallocatechin-3-O-gallate and epigallocatechin-3-O-(3-O-methyl)gallate known to have stronger antiallergic activity than epigallocatechin-3-O-gallate were used as comparison substances. […] Then, DNP-HSA (antigen) was added thereto to induce degranulation (20 minutes), and the amount of histamine in the supernatant was measured by liquid chromatography. The antiallergic activity was evaluated based on the relative value with respect to the value for the control (distilled water). […]

[2] = compared with EGCG; cited from earlier work

In the case of `COc1cc([C@H]2Oc3cc(O)cc(O)c3C[C@H]2OC(=O)c2cc(OC)c(O)c(OC)c2)cc(O)c1O` [epi(3-O-methyl)gallocatechin-3-O-(3,5-O-dimethyl)gallate], the “histamine release inhibitory activity” value [1] is reported as “stronger than those of the comparison substances”.
For `COc1c(O)cc(C(=O)O[C@@H]2Cc3c(O)cc(O)cc3O[C@@H]2c2cc(O)c(O)c(O)c2)cc1O` [epigallocatechin-3-O-(4-O-methyl)gallate], the antiallergic activity [2] is given as “stronger antiallergic activity than EGCG”.
For “epigallocatechin-3-O-(3-O-methyl)gallate”, the antiallergic activity [2] is given as “stronger antiallergic activity than EGCG”.
